Our source for the CC50 and Ki values is patent US20250011319A1, “SUBSTITUTED 1H-PYRAZOLO [4,3-c] QUINOLINES, METHODS OF PREPARATION, AND USE THEREOF” (Lomond Therapeutics, Inc., priority 2021, published 2025).

Read-outs that look alike come from different tables or passages of the source. Some results are limits rather than exact numbers.

The CC50 is the concentration giving 50% cytotoxicity. Usually Ki stands for a dissociation constant, usually derived from enzyme kinetics or from competition with a known ligand.

One data set deals with MOLM-13. The experiment in a line: MOLM-13 Cytotoxicity Assay. Particulars: Homo sapiens. The format is cell-based. The procedure: Example C. MOLM-13 Cytotoxicity Assay. Assay was performed according the procedure described in O. A. Elgamal et al. J. Hematol. Oncol. 2020, 13, 8 (https://doi.org/10.1186/s13045-019-0821-7).
The next data set concerns MV4-11 cell lines. The experiment in a line: MV4-11 Cytotoxicity Assay (CellTiter-Glo). To be noted: Homo sapiens, read-out: MV4-11, CC50. The format is cell-based. The procedure: Example B. MV4-11 Cytotoxicity Assay. CC50 was determined using MV4-11 cell lines in RPMI-1640 culture medium (PanEco cat #C363). Compounds were prepared as 200× stocks with serial dilution in 100% DMSO with a final concentration of 1×. Dispersed 40 μL in 384-well plates at a concentration of 4000 cells per well using a robotic station Biomek (Beckman). Before adding compounds, the cells were incubated at 37° C. A dilution plate was prepared by pouring 78 μl of the appropriate culture medium using a robotic station Biomek (Beckman). Sequentially, using a robotic station, 2 μl of substances were taken and added to 78 μl of culture medium (dilution of compounds 40×). Took from there 10 μl and added to the plates to the cells (dilution of compounds 5×). The plates were incubated for 3 days at a temperature 37° C. After 3 days, 10 μl of CellTiter-Glo (Promega) was added to the cells and the luminescence was measured.
Background: Cellular ATP, detected with luciferase, serves as a proxy for viable cell number.

The target in a further data set is recombinant HPK1 protein (Homo sapiens (Human), UniProt Q92918). The experiment in a line: Primary HPK1 enzymatic inhibition (ADP-Glo luminescence). Particulars: recombinant HPK1, MBP substrate, 1 hour at room temperature. The format is biochemical. As for the experimental part:
Example A. Primary Assay used to determine potency of HPK1 enzymatic activity inhibition. Compound activity was determined using recombinant HPK1 protein and MBP Substrate (both Promega, Cat #V6398) in an in vitro enzymatic reaction. The enzymatic assay used to determine activity was a Luminescence assay using a Microplate Reader ClarioStar Plus. The enzymatic reaction was carried out in assay buffer (40 mM TRIS-HCl pH 7.4-7.6, 20 mM MgCl2, 0.05 mM DTT, 0.1 mg/ml BSA). The compounds were dispensed on a 384 well Diamond Well Plate (Axigen, Cat #P-384-120SQ-C—S) using the Biomek FX liquid handling system at 100× solutions of compounds in DMSO. 2×HPK1-MBP mix (final concentration 0.64 ng/μl of HPK1 and 45 ng/μl of MBP) was prepared in 1× Assay buffer and 5.5 μl of mixture per well was added into 384 w white Reaction plate with NBS (Corning, Cat #4513). 5.5 μl of MBP substrate w/o HPK1 in 1× buffer was used for negative control. Plates were centrifuged for 1 min at 100 g. Next step the Compounds were added to Reaction plate using Biomek station via following steps: 1l of 100× compounds (in DMSO) were mixed thoroughly with 49 ul of 2×10 uM ATP in Assay Buffer, then 5.5 μl of this mixture was added to Reaction plate with 5.5 μl of HPK1-MBP mix. Plates were centrifuged for 1 min at 100 g and incubated for 1 hour at room temperature. Next 3 μL of ADP-Glo reagent (Promega, ADP-Glo™ Kinase Assay, Cat #V9102) per well was added. Plates were incubated for 30 minutes at room temperature. Then 6 μL of Kinase detection reagent (Promega, ADP-Glo™ Kinase Assay, Cat #V9102) per well was added and the Luminescence was measured using Microplate Reader. The % inhibition was then used to calculate the IC50 values.
In general terms: ADP-Glo first removes unused ATP, then detects ADP through luciferase.

The target of a further data set is FLT3 (wt) (Homo sapiens (Human), UniProt P36888). The experiment in a line: FLT3 kinase radiometric HotSpot assay, FLT3 (wt). It counts as biochemical. The procedure: (§1) Example D. FLT3 inhibitory activity and cytotoxicity. This assay was used to determine potency of FLT3 enzymatic activity inhibition. Corresponding biochemical inhibition of enzymatic activities of FLT3 (wt), FLT3 (D835Y), and FLT3 (ITD) were measured using recombinant protein constructs of kinase domains via activity based FLT3 kinase assay for compound screening and profiling via radiometric HotSpot™ kinase assay (Reaction Biology). Peptide substrate [[…]]. Compounds were dissolved to 10 mM in DMSO. Compounds were tested in 10-dose IC50 mode with a 3-fold serial dilution starting at 0.3 μM. […] Reactions were carried out at 1 μM ATP. The estimated Ki values were calculated by using the formula presented below, which is applicable for ATP competitive inhibitors: Ki=IC50/(1+[S]/Km). […] In Table E shown HEK293 cytotoxicity.

The next data set concerns the target FLT3 (D835Y) (Homo sapiens (Human), UniProt P36888, D835Y). The experiment in a line: FLT3 kinase radiometric HotSpot assay, FLT3 (D835Y). The format is biochemical. As for the experimental part:
as §1

A further data set can be described thus: HEK293 cytotoxicity. It counts as cell-based. Particulars: human, HEK293 cells. As for the experimental part:
as §1

Another data set addresses FLT3 (ITD) (Homo sapiens, UniProt P36888, ITD). The experiment in a line: FLT3 kinase radiometric HotSpot assay, FLT3 (ITD). The format is biochemical.
The mark [1] stands for this setting: MOLM-13 cells, read-out: MOLM-13, CC50.
[2] abbreviates: 72 h, MV4-11 cells, 3 days, CellTiter-Glo.

Sequence of recombinant HPK1 protein (Q92918 whole entry): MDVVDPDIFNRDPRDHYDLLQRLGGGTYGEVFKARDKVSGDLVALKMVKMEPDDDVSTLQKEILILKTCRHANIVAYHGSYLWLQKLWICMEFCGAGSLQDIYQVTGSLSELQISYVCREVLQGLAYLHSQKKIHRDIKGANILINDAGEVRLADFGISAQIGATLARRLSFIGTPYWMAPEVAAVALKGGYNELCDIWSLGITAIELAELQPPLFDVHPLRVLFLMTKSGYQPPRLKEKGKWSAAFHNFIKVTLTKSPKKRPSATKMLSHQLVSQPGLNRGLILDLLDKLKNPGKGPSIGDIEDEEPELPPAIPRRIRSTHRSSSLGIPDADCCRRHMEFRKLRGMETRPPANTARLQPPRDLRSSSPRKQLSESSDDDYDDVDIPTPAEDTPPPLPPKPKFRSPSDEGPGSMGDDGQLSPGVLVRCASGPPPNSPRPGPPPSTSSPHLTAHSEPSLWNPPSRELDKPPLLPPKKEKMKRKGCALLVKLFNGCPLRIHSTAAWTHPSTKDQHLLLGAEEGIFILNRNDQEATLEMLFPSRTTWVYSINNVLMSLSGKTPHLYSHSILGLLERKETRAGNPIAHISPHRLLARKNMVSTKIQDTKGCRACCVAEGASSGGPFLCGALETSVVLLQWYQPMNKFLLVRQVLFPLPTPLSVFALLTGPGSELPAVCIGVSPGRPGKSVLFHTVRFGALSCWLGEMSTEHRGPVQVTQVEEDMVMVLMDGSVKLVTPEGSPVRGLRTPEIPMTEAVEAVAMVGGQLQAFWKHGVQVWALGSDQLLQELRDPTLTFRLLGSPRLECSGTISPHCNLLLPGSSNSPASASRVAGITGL

With `COc1ccc2ncc3c(-c4cccc(N5CCC(N(C)C)CC5)c4)nn(-c4ccc(C)c(C)c4)c3c2c1` [Compound 1.1, 1-{3-[1-(3,4-dimethylphenyl)-8-methoxy-1H-pyrazolo[4,3-c]quinolin-3-yl]phenyl}-N,N-dimethylpiperidin-4-amine], the CC50 in the data set with MOLM-13 (setting [1]) is 1000 to 5000 nM; in the data set on MV4-11 cell lines (setting [2]) it was more than 500 nM. For the same compound, on recombinant HPK1 protein, the Ki was in the range of 10 to 20 nM.
In the same order, the values of `COc1ccc2ncc3c(-c4cccc(N5CCN(C)CC5)c4)nn(-c4ccc(C)c(C)c4)c3c2c1` [Compound 1.3, 1-{3-[1-(3,4-dimethylphenyl)-8-methoxy-1H-pyrazolo[4,3-c]quinolin-3-yl]phenyl}-4-methylpiperazine] are more than 5000 nM, 100 to 500 nM and 10 to 20 nM.
Regarding `COc1ccc2ncc3c(-c4cccc(N5CCC(N(C)C)CC5)c4)nn(-c4cccc(C)c4C)c3c2c1` [Compound 1.14, 1-{3-[1-(2,3-dimethylphenyl)-8-methoxy-1H-pyrazolo[4,3-c]quinolin-3-yl]phenyl}-N,N-dimethylpiperidin-4-amine], the CC50 in the data set on MV4-11 cell lines (setting [2]) was more than 500 nM. Moreover, the Ki on recombinant HPK1 protein was less than 10 nM.
As for `COc1ccc2ncc3c(-c4ccc(N5CCN(C)CC5)cc4)nn(-c4ccc(C)c(C)c4)c3c2c1` [Compound 1.16, 1-{4-[1-(3,4-dimethylphenyl)-8-methoxy-1H-pyrazolo[4,3-c]quinolin-3-yl]phenyl}-4-methylpiperazine], the CC50 in the data set with MOLM-13 (setting [1]) was less than 500 nM; in the data set with MV4-11 cell lines (setting [2]), 50 to 100 nM. Further, on recombinant HPK1 protein, the Ki lay in the range of 10 to 20 nM.
As for `COc1ccc2ncc3c(-c4ccc(N5CCC(N(C)C)CC5)cc4)nn(-c4ccc(C)c(C)c4)c3c2c1` [Compound 1.17, 1-{4-[1-(3,4-dimethylphenyl)-8-methoxy-1H-pyrazolo[4,3-c]quinolin-3-yl]phenyl}-N,N-dimethylpiperidin-4-amine], in the data set on MV4-11 cell lines (setting [2]), the CC50 lay within 50 to 100 nM. For the same compound, the Ki at recombinant HPK1 protein fell in the range of 10 to 20 nM.
With `COc1ccc2ncc3c(-c4ccc(N(C)CCCN(C)C)cc4)nn(-c4ccc(C)c(C)c4)c3c2c1` [Compound 1.18, N-[3-(dimethylamino)propyl]-4-[1-(3,4-dimethylphenyl)-8-methoxy-1H-pyrazolo[4,3-c]quinolin-3-yl]-N-methylaniline], the values for the CC50 with MOLM-13 (setting [1]) and with MV4-11 cell lines (setting [2]) were more than 5000 nM and 100 to 500 nM, respectively. At recombinant HPK1 protein, the Ki lay in the range of 20 to 50 nM.
On the same counts, the results for `Cc1ccc(-n2nc(-c3ccc(N4CCN(C)CC4)cc3)c3cnc4ccccc4c32)cc1C` [Compound 1.21, 1-{4-[1-(3,4-dimethylphenyl)-1H-pyrazolo[4,3-c]quinolin-3-yl]phenyl}-4-methylpiperazine] are 1000 to 5000 nM, 100 to 500 nM and not below 50 nM.
In the same order, the values of `Cc1ccc(-n2nc(-c3ccc(N4CCNCC4)cc3)c3cnc4ccccc4c32)cc1C` [Compound 1.22, 1-{4-[1-(3,4-dimethylphenyl)-1H-pyrazolo[4,3-c]quinolin-3-yl]phenyl}piperazine] are 1000 to 5000 nM, 100 to 500 nM and not below 50 nM.
In the case of `COc1ccc2ncc3c(-c4ccc(OCCN(C)C)c(OC)c4)nn(-c4ccc(C)c(C)c4)c3c2c1` [Compound 1.24, (2-{4-[1-(3,4-dimethylphenyl)-8-methoxy-1H-pyrazolo[4,3-c]quinolin-3-yl]-2-methoxyphenoxy}ethyl)dimethylamine], the CC50 in the data set with MOLM-13 (MOLM-13, read-out: MOLM-13, CC50) was less than 500 nM; with MV4-11 cell lines (MV4-11, 72 h), less than 50 nM. In addition, the Ki at recombinant HPK1 protein was in the range of 10 to 20 nM.
Consider `COc1ccc2ncc3c(-c4ccc(OCCN5CCOCC5)c(OC)c4)nn(-c4ccc(C)c(C)c4)c3c2c1` [Compound 1.25, 4-(2-{4-[1-(3,4-dimethylphenyl)-8-methoxy-1H-pyrazolo[4,3-c]quinolin-3-yl]-2-methoxyphenoxy}ethyl)morpholine], for which the CC50 lay within 1000 to 5000 nM in the data set on MOLM-13 (setting [1]) and 100 to 500 nM in the data set with MV4-11 cell lines (setting [2]). The Ki on recombinant HPK1 protein was in the range of 20 to 50 nM.
In the same order, the values of `COc1ccc2ncc3c(-c4ccc(OCCCN5CCOCC5)c(OC)c4)nn(-c4ccc(C)c(C)c4)c3c2c1` [Compound 1.26, 4-(3-{4-[1-(3,4-dimethylphenyl)-8-methoxy-1H-pyrazolo[4,3-c]quinolin-3-yl]-2-methoxyphenoxy}propyl)morpholine] are 500 to 1000 nM, 50 to 100 nM and 20 to 50 nM.
For `COc1ccc(-c2nn(-c3ccc4c(c3)CNCC4)c3c2cnc2ccccc23)cc1OC` [Compound 1.31, 7-[3-(3,4-dimethoxyphenyl)-1H-pyrazolo[4,3-c]quinolin-1-yl]-1,2,3,4-tetrahydroisoquinoline], the Ki on FLT3 (wt) was less than 0.5 nM; on FLT3 (D835Y), less than 0.5 nM; at FLT3 (ITD) it was 0.5 to 2 nM. In addition, the CC50 in the data set “HEK293 cytotoxicity” is less than 10000 nM.
For `COc1ccc(-c2nn(-c3ccc4c(c3)CCNC4)c3c2cnc2ccccc23)cc1OC` [Compound 1.32, 6-[3-(3,4-dimethoxyphenyl)-1H-pyrazolo[4,3-c]quinolin-1-yl]-1,2,3,4-tetrahydroisoquinoline], the Ki at FLT3 (wt) was 0.5 to 2 nM; at FLT3 (D835Y), 0.5 to 2 nM; on FLT3 (ITD), more than 5 nM. In addition, the CC50 in “HEK293 cytotoxicity” was in the range of 10000 to 50000 nM.
`COc1ccc(-c2nn(-c3ccc4c(c3)CNC4)c3c2cnc2ccccc23)cc1OC` [Compound 1.33, 5-[3-(3,4-dimethoxyphenyl)-1H-pyrazolo[4,3-c]quinolin-1-yl]-2,3-dihydro-1H-isoindole]: the figures for the Ki on FLT3 (wt), on FLT3 (D835Y) and on FLT3 (ITD) were 0.5 to 2 nM, less than 0.5 nM and 2 to 5 nM, respectively. In the data set “HEK293 cytotoxicity”, this compound had a CC50 not below 50000 nM.
For `COc1ccc2ncc3c(-c4ccc(OC)c(OC)c4)nn(-c4ccc5c(c4)CNCC5)c3c2c1` [Compound 1.34, 7-[3-(3,4-dimethoxyphenyl)-8-methoxy-1H-pyrazolo[4,3-c]quinolin-1-yl]-1,2,3,4-tetrahydroisoquinoline], the Ki on FLT3 (wt) was less than 0.5 nM; on FLT3 (D835Y) it was less than 0.5 nM; on FLT3 (ITD) (read-out: Ki, nM FLT3 (ITD)), less than 0.5 nM.
Turning to `COc1ccc2ncc3c(-c4ccc(OC)c(OC)c4)nn(-c4ccc5c(c4)CCNC5)c3c2c1` [Compound 1.35, 6-[3-(3,4-dimethoxyphenyl)-8-methoxy-1H-pyrazolo[4,3-c]quinolin-1-yl]-1,2,3,4-tetrahydroisoquinoline], the inhibition constant Ki on FLT3 (wt) was less than 0.5 nM; at recombinant HPK1 protein it was less than 10 nM; at FLT3 (D835Y), less than 0.5 nM; at FLT3 (ITD) (read-out: Ki, nM FLT3 (ITD)), 0.5 to 2 nM. The same compound had a CC50 in “HEK293 cytotoxicity” of less than 10000 nM.
For the compound `COc1ccc2ncc3c(-c4ccc(OC)c(OC)c4)nn(-c4ccc5c(c4)CNC5)c3c2c1` [Compound 1.36, 5-[3-(3,4-dimethoxyphenyl)-8-methoxy-1H-pyrazolo[4,3-c]quinolin-1-yl]-2,3-dihydro-1H-isoindole], the inhibition constant (Ki) at FLT3 (wt) is less than 0.5 nM; on recombinant HPK1 protein it was less than 10 nM; on FLT3 (D835Y), less than 0.5 nM; at FLT3 (ITD) (read-out: Ki, nM FLT3 (ITD)), 0.5 to 2 nM. The CC50 in the data set “HEK293 cytotoxicity” is less than 10000 nM.
